Laboratory results reported in publication PMC5766581, “NF-κB inducing kinase is a therapeutic target for systemic lupus erythematosus” (Nature Communications, 2018).

What was measured:
Test in all cases: SelectScreen kinase panel
Format in all cases: biochemical
mTOR = target: T1, mTOR (Homo sapiens, UniProt P42345)
T1 construct: purchased Invitrogen / ThermoFisher SelectScreen
Procedure: (§1) The ability of NIK to catalyze the hydrolysis of adenosine-5′-triphosphate (ATP) was monitored using the Transcreener ADP (adenosine-5′-diphosphate) assay (Bell Brook Labs, Fitchburg, WI). Purified human NIK kinase domain (a.a. 340–694) (0.5 nM) or mouse NIK kinase domain (a.a. 329–675) (1 nM) derived from a baculovirus-infected insect cell expression system was incubated with test compounds for 0.5–2 h in 50 mM HEPES buffer (pH 7.2) containing 10 mM MgCl2, 2 mM dithiothreitol, 10 μM ATP, 0.01% Triton X-100, 0.1% gamma-globulins from bovine blood, 1% dimethylsulfoxide (DMSO), 7 μg/mL ADP antibody and 5 nM ADP-MR121 633 tracer. Reactions were quenched by the addition of 20 mM EDTA and 0.01% Brij 35. The tracer bound to the antibody was displaced by the ADP generated during the NIK reaction, which caused a decrease in fluorescence polarization that was measured by laser excitation at 633 nm with a Fluorescence Correlation Spectroscopy Plus reader (Evotec AG). Equilibrium dissociation constant (Ki) values for NIK inhibitors are calculated from plots of activity vs. inhibitor concentration using Morrison’s quadratic equation that accounts for the potential of tight binding, and by also applying the conversion factor that accounted for competitive inhibition and the concentration of substrate used in the assay relative to its Michaelis constant (Km). The Ki values with hPKD1 (PKCμ) were determined using the same assay conditions as for NIK. Ki measurements for hKHS1 and hLRRK2, as well as broad kinase selectivity profiling for SMI1, were carried out by Invitrogen using their SelectScreen kinase assay panel (ThermoFisher Scientific, Madison, WI). The vendor offered two types of kinase activity assays, a peptide phosphorylation assay (Z′-LYTE) and an ADP quantitation assay (Adapta), as well as one type of kinase ATP site competitive binding assay (LanthaScreen). See vendor web site for technology and protocol details for each specific kinase assay.
(§2) The average % Inhibition of each kinase is reported (Supplementary Table 1).

PRKAA1 = target: T2, PRKAA1 (Homo sapiens, UniProt Q13131)
T2 construct: purchased Invitrogen / ThermoFisher SelectScreen
Procedure: as §1, §2

PLK1 = target: T3, PLK1 (Homo sapiens, UniProt P53350)
T3 construct: purchased Invitrogen / ThermoFisher SelectScreen
Procedure: as §1, §2

Blk = target: T4, Blk (Homo sapiens, UniProt P51451)
T4 construct: purchased Invitrogen / ThermoFisher SelectScreen
Procedure: as §1, §2

PKD2 = target: T5, PKD2 (Homo sapiens, UniProt Q9BZL6)
T5 construct: purchased Invitrogen / ThermoFisher SelectScreen
Procedure: as §1, §2

Ros = target: T6, Ros (Homo sapiens, UniProt P08922)
T6 construct: purchased Invitrogen / ThermoFisher SelectScreen
Procedure: as §1, §2

PAK3 = target: T7, PAK3 (Homo sapiens, UniProt O75914)
T7 construct: purchased Invitrogen / ThermoFisher SelectScreen
Procedure: as §1, §2

MARK3 = target: T8, MARK3 (Homo sapiens, UniProt P27448)
T8 construct: purchased Invitrogen / ThermoFisher SelectScreen
Procedure: as §1, §2

Mer = target: T9, Mer (Homo sapiens, UniProt Q12866)
T9 construct: purchased Invitrogen / ThermoFisher SelectScreen
Procedure: as §1, §2

PKC_eta = target: T10, PKC_eta (Homo sapiens, UniProt P24723)
T10 construct: purchased Invitrogen / ThermoFisher SelectScreen
Procedure: as §1, §2

SRPK1 = target: T11, SRPK1 (Homo sapiens, UniProt Q96SB4)
T11 construct: purchased Invitrogen / ThermoFisher SelectScreen
Procedure: as §1, §2

Aurora_A = target: T12, Aurora_A (Homo sapiens, UniProt O14965)
T12 construct: purchased Invitrogen / ThermoFisher SelectScreen
Procedure: as §1, §2

CDK7/cyclinH = target: T13, CDK7/cyclinH (Homo sapiens, UniProt P50613)
T13 construct: purchased Invitrogen / ThermoFisher SelectScreen
Procedure: as §1, §2

SPHK1 = target: T14, SPHK1 (Homo sapiens, UniProt Q9NYA1)
T14 construct: purchased Invitrogen / ThermoFisher SelectScreen
Procedure: as §1, §2

PKC_beta1 = target: T15, PKC_beta1 (Homo sapiens, UniProt P05771)
T15 construct: purchased Invitrogen / ThermoFisher SelectScreen
Procedure: as §1, §2

RSK1 = target: T16, RSK1 (Homo sapiens, UniProt Q15418)
T16 construct: purchased Invitrogen / ThermoFisher SelectScreen
Procedure: as §1, §2

JNK1_alpha1 = target: T17, JNK1_alpha1 (Homo sapiens, UniProt P45983)
T17 construct: purchased Invitrogen / ThermoFisher SelectScreen
Procedure: as §1, §2

Rse = target: T18, Rse (Homo sapiens, UniProt Q06418)
T18 construct: purchased Invitrogen / ThermoFisher SelectScreen
Procedure: as §1, §2

MELK = target: T19, MELK (Homo sapiens, UniProt Q14680)
T19 construct: purchased Invitrogen / ThermoFisher SelectScreen
Procedure: as §1, §2

Bmx = target: T20, Bmx (Homo sapiens, UniProt P51813)
T20 construct: purchased Invitrogen / ThermoFisher SelectScreen
Procedure: as §1, §2

YSK1 = target: T21, YSK1 (Homo sapiens, UniProt O00506)
T21 construct: purchased Invitrogen / ThermoFisher SelectScreen
Procedure: as §1, §2

DYRK1A = target: T22, DYRK1A (Homo sapiens, UniProt Q13627)
T22 construct: purchased Invitrogen / ThermoFisher SelectScreen
Procedure: as §1, §2

MST3 = target: T23, MST3 (Homo sapiens, UniProt Q9Y6E0)
T23 construct: purchased Invitrogen / ThermoFisher SelectScreen
Procedure: as §1, §2

CDK2/CyclinA = target: T24, CDK2/CyclinA (Homo sapiens, UniProt P24941)
T24 construct: purchased Invitrogen / ThermoFisher SelectScreen
Procedure: as §1, §2

ROCK1 = target: T25, ROCK1 (Homo sapiens, UniProt Q13464)
T25 construct: purchased Invitrogen / ThermoFisher SelectScreen
Procedure: as §1, §2

CamKIV = target: T26, CamKIV (Homo sapiens, UniProt Q16566)
T26 construct: purchased Invitrogen / ThermoFisher SelectScreen
Procedure: as §1, §2

EphA1 = target: T27, EphA1 (Homo sapiens, UniProt P21709)
T27 construct: purchased Invitrogen / ThermoFisher SelectScreen
Procedure: as §1, §2

TYK2 = target: T28, TYK2 (Homo sapiens, UniProt P29597)
T28 construct: purchased Invitrogen / ThermoFisher SelectScreen
Procedure: as §1, §2

ITK = target: T29, ITK (Homo sapiens, UniProt Q08881)
T29 construct: purchased Invitrogen / ThermoFisher SelectScreen
Procedure: as §1, §2

AKT1 = target: T30, AKT1 (Homo sapiens, UniProt P31749)
T30 construct: purchased Invitrogen / ThermoFisher SelectScreen
Procedure: as §1, §2

GRK3 = target: T31, GRK3 (Homo sapiens, UniProt P35626)
T31 construct: purchased Invitrogen / ThermoFisher SelectScreen
Procedure: as §1, §2

ARK5 = target: T32, ARK5 (Homo sapiens, UniProt O60285)
T32 construct: purchased Invitrogen / ThermoFisher SelectScreen
Procedure: as §1, §2

JAK3 = target: T33, JAK3 (Homo sapiens, UniProt P52333)
T33 construct: purchased Invitrogen / ThermoFisher SelectScreen
Procedure: as §1, §2

T9 sequence (Q12866 21-999): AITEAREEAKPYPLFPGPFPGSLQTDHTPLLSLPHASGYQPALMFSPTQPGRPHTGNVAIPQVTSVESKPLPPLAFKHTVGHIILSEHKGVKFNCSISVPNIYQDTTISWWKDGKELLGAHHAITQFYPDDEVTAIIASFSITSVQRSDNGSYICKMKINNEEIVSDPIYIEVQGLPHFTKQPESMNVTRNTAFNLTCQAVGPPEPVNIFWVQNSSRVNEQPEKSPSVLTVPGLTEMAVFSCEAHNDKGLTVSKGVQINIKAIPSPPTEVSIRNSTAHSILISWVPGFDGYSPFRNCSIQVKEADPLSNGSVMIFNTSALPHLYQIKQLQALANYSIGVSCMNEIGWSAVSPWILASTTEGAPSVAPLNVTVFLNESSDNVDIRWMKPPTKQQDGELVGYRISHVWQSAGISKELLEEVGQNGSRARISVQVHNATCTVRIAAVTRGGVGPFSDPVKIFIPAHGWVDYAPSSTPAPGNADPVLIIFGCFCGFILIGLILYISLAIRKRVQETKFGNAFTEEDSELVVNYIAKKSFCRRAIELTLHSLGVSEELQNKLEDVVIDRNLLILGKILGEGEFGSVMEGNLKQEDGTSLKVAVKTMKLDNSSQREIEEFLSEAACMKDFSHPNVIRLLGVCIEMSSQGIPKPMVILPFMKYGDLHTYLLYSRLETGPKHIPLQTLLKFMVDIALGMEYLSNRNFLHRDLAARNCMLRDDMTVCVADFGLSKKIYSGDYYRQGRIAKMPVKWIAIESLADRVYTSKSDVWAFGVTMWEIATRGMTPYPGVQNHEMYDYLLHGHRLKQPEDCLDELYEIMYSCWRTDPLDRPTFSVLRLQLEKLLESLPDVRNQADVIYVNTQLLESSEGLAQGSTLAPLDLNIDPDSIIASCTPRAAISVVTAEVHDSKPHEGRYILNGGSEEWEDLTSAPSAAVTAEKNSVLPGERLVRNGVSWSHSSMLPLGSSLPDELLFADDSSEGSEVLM
T12 sequence (O14965 whole entry): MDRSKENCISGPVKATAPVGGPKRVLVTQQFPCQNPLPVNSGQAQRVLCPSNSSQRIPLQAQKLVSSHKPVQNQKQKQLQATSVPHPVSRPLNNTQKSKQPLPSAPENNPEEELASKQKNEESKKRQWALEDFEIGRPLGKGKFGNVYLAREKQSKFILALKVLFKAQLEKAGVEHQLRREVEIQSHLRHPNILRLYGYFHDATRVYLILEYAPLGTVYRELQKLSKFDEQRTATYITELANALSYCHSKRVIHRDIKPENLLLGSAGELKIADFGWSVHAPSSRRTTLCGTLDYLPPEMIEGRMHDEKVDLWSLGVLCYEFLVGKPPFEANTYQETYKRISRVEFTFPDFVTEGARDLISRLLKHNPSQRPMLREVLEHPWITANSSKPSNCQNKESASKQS
T29 sequence (Q08881 whole entry): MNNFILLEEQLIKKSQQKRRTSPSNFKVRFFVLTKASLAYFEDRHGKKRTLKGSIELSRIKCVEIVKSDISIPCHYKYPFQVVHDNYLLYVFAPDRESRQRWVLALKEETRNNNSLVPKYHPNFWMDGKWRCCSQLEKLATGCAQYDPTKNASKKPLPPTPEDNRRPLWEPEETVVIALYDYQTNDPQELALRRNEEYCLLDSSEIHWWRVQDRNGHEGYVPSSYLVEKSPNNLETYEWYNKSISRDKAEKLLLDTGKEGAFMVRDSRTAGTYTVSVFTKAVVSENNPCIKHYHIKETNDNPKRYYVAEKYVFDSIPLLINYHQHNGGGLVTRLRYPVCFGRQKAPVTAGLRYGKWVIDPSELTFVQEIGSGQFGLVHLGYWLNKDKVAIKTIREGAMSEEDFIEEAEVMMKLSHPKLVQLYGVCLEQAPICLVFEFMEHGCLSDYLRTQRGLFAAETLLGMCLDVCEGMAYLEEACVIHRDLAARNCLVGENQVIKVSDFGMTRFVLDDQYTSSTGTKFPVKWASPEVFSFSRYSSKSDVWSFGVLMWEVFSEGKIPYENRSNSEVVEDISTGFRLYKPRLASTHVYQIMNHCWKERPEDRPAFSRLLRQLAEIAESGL
T15 sequence (P05771 whole entry): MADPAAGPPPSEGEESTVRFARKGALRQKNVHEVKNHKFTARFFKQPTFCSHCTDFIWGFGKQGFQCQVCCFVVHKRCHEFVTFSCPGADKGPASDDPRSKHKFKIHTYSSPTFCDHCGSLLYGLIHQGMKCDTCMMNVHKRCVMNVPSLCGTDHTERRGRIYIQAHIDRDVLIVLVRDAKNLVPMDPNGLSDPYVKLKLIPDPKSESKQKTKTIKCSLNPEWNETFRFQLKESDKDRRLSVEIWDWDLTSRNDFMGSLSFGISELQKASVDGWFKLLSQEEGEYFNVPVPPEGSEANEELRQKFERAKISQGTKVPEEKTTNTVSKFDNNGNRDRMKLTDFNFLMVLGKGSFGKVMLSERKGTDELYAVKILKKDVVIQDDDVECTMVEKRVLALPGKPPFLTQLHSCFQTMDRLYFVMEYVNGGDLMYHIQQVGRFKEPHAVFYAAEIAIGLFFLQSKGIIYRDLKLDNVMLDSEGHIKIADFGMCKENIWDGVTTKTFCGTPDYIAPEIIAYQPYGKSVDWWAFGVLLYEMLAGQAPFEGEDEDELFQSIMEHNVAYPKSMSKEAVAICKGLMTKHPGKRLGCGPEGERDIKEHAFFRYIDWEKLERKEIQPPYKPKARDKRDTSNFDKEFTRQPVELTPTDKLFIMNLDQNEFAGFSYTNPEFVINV
T5 sequence (Q9BZL6 whole entry): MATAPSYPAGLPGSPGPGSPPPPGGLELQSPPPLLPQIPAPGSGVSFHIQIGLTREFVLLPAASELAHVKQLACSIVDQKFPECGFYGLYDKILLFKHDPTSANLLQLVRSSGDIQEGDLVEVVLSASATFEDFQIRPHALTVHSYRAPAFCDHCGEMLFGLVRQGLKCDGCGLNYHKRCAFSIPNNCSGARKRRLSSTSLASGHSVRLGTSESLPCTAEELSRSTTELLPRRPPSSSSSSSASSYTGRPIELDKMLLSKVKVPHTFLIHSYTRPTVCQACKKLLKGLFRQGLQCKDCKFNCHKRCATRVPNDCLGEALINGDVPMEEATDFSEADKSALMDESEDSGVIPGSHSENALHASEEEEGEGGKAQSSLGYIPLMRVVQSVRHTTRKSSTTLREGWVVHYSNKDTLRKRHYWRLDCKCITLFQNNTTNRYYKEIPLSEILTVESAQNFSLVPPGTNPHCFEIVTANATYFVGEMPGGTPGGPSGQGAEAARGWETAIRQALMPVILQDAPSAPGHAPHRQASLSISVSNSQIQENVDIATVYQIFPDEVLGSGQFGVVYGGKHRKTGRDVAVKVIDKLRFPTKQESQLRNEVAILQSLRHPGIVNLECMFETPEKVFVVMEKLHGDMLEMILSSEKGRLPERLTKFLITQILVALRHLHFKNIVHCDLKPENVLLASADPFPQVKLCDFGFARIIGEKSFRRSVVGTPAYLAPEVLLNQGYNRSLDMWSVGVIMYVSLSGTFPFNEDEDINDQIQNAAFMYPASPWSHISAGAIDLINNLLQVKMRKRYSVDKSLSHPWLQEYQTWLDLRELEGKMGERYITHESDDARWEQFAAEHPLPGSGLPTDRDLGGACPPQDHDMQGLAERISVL
T27 sequence (P21709 26-976): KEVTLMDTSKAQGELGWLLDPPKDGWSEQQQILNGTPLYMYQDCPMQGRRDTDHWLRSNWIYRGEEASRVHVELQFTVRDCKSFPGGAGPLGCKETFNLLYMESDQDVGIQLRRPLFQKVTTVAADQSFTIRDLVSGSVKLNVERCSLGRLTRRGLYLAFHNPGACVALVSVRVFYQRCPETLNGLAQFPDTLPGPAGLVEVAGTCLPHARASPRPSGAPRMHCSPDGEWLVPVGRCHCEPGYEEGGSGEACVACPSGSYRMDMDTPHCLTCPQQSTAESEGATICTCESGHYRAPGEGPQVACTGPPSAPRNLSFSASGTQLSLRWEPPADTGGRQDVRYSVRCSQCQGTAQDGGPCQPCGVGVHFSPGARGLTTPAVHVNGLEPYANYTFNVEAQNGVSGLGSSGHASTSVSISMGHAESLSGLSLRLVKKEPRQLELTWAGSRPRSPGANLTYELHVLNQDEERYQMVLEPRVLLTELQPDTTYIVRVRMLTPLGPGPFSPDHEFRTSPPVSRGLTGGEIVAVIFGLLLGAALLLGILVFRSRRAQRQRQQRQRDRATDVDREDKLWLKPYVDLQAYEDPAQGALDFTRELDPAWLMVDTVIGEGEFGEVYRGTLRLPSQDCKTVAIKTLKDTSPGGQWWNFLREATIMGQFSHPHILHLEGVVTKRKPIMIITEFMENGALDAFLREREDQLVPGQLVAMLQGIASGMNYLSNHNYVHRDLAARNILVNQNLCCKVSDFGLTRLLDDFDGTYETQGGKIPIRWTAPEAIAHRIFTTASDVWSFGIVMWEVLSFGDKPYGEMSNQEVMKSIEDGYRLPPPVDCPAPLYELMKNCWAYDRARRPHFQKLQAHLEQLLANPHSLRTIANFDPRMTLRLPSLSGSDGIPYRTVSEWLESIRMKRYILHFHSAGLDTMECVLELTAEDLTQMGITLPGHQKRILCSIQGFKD
T23 sequence (Q9Y6E0 whole entry): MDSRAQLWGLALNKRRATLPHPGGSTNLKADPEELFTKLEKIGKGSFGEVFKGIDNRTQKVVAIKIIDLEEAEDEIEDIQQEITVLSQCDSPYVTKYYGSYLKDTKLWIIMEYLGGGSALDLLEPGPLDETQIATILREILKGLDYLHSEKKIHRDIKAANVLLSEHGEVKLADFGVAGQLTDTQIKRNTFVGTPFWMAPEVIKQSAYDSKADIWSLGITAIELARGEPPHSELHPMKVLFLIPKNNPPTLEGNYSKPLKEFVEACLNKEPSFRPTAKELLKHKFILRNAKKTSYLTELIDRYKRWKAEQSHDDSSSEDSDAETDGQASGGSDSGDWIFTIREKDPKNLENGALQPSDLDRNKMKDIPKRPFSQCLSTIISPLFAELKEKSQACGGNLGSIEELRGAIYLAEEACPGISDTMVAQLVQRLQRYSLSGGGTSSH

## COc1cc(C(N)=O)nc(-c2cccc(C#C[C@]3(O)CCN(C)C3=O)c2)c1 [NIK SMI1]
mTOR
  inhibition at 1 µM: -1%
PRKAA1
  inhibition at 1 µM: 20.5%
PLK1
  inhibition at 1 µM: 1.5%
Blk
  inhibition at 1 µM: -10.5%
PKD2
  inhibition at 1 µM: 0%
Ros
  inhibition at 1 µM: 12.5%
PAK3
  inhibition at 1 µM: -3.5%
MARK3
  inhibition at 1 µM: 7.5%
Mer
  inhibition at 1 µM: 3.5%
PKC_eta
  inhibition at 1 µM: 38%
SRPK1
  inhibition at 1 µM: 8.5%
Aurora_A
  inhibition at 1 µM: 1%
CDK7/cyclinH
  inhibition at 1 µM: -5.5%
SPHK1
  inhibition at 1 µM: 21.3%
PKC_beta1
  inhibition at 1 µM: 1.5%
RSK1
  inhibition at 1 µM: 4.5%
JNK1_alpha1
  inhibition at 1 µM: 5.6%
Rse
  inhibition at 1 µM: 12%
MELK
  inhibition at 1 µM: 26.5%
Bmx
  inhibition at 1 µM: -5%
YSK1
  inhibition at 1 µM: 39%
DYRK1A
  inhibition at 1 µM: 4.5%
MST3
  inhibition at 1 µM: 32.5%
CDK2/CyclinA
  inhibition at 1 µM: -1.5%
ROCK1
  inhibition at 1 µM: 9.5%
CamKIV
  inhibition at 1 µM: 14.5%
EphA1
  inhibition at 1 µM: 2.5%
TYK2
  inhibition at 1 µM: 2%
ITK
  inhibition at 1 µM: -3%
AKT1
  inhibition at 1 µM: 28.5%
GRK3
  inhibition at 1 µM: 1.5%
ARK5
  inhibition at 1 µM: 1.5%
JAK3
  inhibition at 1 µM: 15%
